According to US20230372292A1 (priority 2020, published 2023):

Assays:
[1] = molecular target: T1, Caspase-7 (Homo sapiens, UniProt P55210); conditions: active form of Belnacasan; cited from earlier work
T1 sequence (P55210 24-198 limits assumed): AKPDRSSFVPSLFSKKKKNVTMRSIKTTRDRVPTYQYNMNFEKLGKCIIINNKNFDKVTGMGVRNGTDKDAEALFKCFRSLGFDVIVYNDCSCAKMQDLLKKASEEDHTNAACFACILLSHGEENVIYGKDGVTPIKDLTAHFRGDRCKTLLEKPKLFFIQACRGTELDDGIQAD
T1 sequence (P55210 207-303 limits assumed): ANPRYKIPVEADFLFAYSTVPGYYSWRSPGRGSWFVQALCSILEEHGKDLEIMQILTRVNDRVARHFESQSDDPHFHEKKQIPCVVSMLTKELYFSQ

[2] = molecular target: T2, Caspase-3 (Homo sapiens, UniProt P42574); conditions: active form of Belnacasan; cited from earlier work
T2 sequence (P42574 29-175 limits assumed): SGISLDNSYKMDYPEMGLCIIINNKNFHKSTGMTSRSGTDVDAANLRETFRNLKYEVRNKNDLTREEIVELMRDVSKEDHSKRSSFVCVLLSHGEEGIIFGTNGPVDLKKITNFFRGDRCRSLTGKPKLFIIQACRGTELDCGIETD
T2 sequence (P42574 176-277 limits assumed): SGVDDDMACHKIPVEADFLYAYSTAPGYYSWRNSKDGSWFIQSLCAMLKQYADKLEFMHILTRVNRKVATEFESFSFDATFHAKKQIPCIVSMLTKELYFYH

[3] = molecular target: T3, Caspase-4 (Homo sapiens, UniProt P49662); conditions: active form of Belnacasan; cited from earlier work
T3 sequence (P49662 81-270 limits assumed): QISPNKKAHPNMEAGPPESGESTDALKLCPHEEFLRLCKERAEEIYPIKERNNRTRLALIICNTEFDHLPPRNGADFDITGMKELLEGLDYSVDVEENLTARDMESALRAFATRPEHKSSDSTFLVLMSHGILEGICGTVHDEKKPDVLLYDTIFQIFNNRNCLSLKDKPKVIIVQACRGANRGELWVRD
T3 sequence (P49662 290-377 limits assumed): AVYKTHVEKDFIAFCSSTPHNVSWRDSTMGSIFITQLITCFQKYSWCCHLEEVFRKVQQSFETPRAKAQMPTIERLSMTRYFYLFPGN

[4] = molecular target: T4, Caspase-9 (Homo sapiens, UniProt P55211); conditions: active form of Belnacasan; cited from earlier work
T4 sequence (P55211 1-315 limits assumed): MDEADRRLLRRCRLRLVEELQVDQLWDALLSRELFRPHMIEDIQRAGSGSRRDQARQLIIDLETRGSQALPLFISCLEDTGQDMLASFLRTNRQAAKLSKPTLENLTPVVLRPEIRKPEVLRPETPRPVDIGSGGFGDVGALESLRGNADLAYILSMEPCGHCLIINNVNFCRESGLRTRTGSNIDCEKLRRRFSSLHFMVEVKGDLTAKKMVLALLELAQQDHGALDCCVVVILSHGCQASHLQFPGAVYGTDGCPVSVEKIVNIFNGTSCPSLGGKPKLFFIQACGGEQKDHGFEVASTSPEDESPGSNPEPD
T4 sequence (P55211 331-416 limits assumed): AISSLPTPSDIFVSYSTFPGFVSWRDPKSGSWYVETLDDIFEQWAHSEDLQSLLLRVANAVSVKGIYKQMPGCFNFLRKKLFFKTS

[5] = system: interleukin-1β release; conditions: after LPS treatment; cited from earlier work
[6] = osteoarthritis, epilepsy, myocardial infarction (in combination with a platelet inhibitor); cited from earlier work
[7] = system: inflammasome-mediated release of IL1beta; assay: Nigericin-induced IL-1β release in PMA-differentiated, LPS-stimulated THP-1 cells (ELISA); type: cell-based, human; conditions: PMA 50 nM 24 h, LPS 1 μg/mL 6 h
Method: THP-1 cells come from a child with leukemia. It is a pre-monocytic line, characterized by a suspension of (non-adherent) cells with a well rounded shape. The cells used come from ATCC. The cells are cultured at a density of 0.4.106 /mL in T75 flasks kept upright in RPMI 1640 Medium, Glutamax, Supplement HEPES (ThermoFischer Scientific, #72400027) supplemented with 10% FCS (previously decomplemented and flitre) and 1% PS antibiotics. The cultures are maintained at 37° C. under a humid atmosphere with 5% CO2.
The differentiation of THP-1 is induced by adding phorbol 12-myritate 13-acetate (PMA, 5 mg/mL stock in DMSO, InvivoGen, # tlrl-pma) to the medium. More precisely, the latter mimics the structure of diacylglycerol (DAG) which is an activator of protein Kinase C (PKC). Thus, it allows the stimulation of the expression of transcription factors including NF-kB, which are involved in macrophage differentiation (Park E. K. et al., 2007; Daigneault M. et al., 2010). After treatment with PMA the cells acquire a macrophages-like phenotype, that is, they become adherent and no longer divide. In practice, the cells are seeded on 24-well plates at a density of 300.103 cells/well, the PMA is then added for 24 hours at a concentration of 50 nM. The next day, the cells are washed gently with PBS and fresh complete medium is added, the cells are then left for 3 days. […]

[8] = cited from earlier work

Row | Compound | Ki [1] | Ki [2] | Ki [3] | Ki [4] | efficacy in cellular models of interleukin-1β release [5] | efficacy in animal models [6] | reduction of the release of the cytokine IL-1β into the medium ([7]; 25 μM, after 120 minutes of Nigericin treatment) | release of IL-1beta induced by nigericin ([7]; Nigericin 5 μM for 60 and 120 minutes, n=3) | tolerability in humans ([8]; oral) | decrease in the frequency of epileptic episodes (secondary endpoint) ([8]; phase 2b, 60 patients with epilepsy (48 VX-765), no statistical superiority vs placebo) | primary endpoint of safety and tolerance ([8]; phase 2b, 60 patients with epilepsy)
1 | CC(C)(C)[C@H](NC(=O)c1ccc(N)c(Cl)c1)C(=O)N1CCC[C@H]1C(=O)N[C@H](C=O)CC(=O)O [VRT-043198] | 21.5 µM | 16 µM | < 0.0006 µM | 1 µM | – | – | – | – | – | – | –
2 | CCO[C@@H]1OC(=O)C[C@@H]1NC(=O)[C@@H]1CCCN1C(=O)[C@@H](NC(=O)c1ccc(N)c(Cl)c1)C(C)(C)C [Belnacasan, (S)-1-((S)-2-(4-Amino-3-chlorobenzamido)-3,3-dimethylbutanoyl)-N-((2R,3S)-2-ethoxy-5-oxotetrahydrofuran-3-yl)pyrrolidine-2-carboxamide] | – | – | – | – | effective | significant efficacy | 90% | prevents the release | well tolerated | 15.6% | reached
